Like-named read-outs stand apart in the source and are kept apart here.

The conditions of data set [1]: ammonia present at an excessive amount in mole ratio to methionine; 5-50° C.; FIG. 1. From the text: About 20 wt % of methionine also can be dissolved in water by addition of inorganic alkali such as NaOH and KOH, while in this case it is required to neutralize with the use of acid to obtain a product in the form of salt-free solid of methionine, leading to a problem that an additional operation to remove a lot of inorganic salt waste generated from the neutralization is required.

For data set [2] the following is noted: by addition of inorganic alkali such as NaOH and KOH.
For data set [3] the following is noted: cited from earlier work.

`CSCC[C@H](N)C(=O)O` (racemic) [methionine]: in data set [1], the solubility of methionine entry is listed as “increases”. The “amount of methionine that can be dissolved in water” value in data set [2] is “About 20 wt %”. For the same compound, the results for the water solubility in data set [3] (at 25° C.) and in data set [3] (at 50° C.) were 3.38 g/100 g·H2O and 6.07 g/100 g·H2O, respectively.
